Experimental findings from patent publication US12264159B2, “Functionalized heterocycles as antiviral agents” (Enanta Pharmaceuticals, Inc., priority 2018, dated 2025) are described below.

One series concerns HBV in 2.2.15 cells. The experiment in a line: 2.2.15 cells: viral product in cell lysates quantified via quantitative real time PCR. The note with it: Hepatitis B virus, 120 h, day 5 post treatment, 50% reduction of viral product vs no drug controls, readout (qPCR, HBsAg or HBeAg) not specified for the column. Type of series: cell-based, hepatitis B virus (HBV). Put shortly: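 2.2.15 cells (35,000/well, DMEM/F12, 10% FBS, G418) were treated with 5-fold serial compound dilutions, 0.5% DMSO final. After 5 days, lysates were quantified by qPCR, or supernatant HBsAg/HBeAg by ELISA; EC50 is the concentration giving 50% reduction versus no-drug controls.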
(Quantitative PCR measures a nucleic acid by following its amplification.)

Series [1] can be described thus: Compound induced cellular toxicity in HepG2 cells, ATPlite 1Step. It counts as cell-based. The note with it: human, three days exposure, 50% reduction of total ATP vs no drug controls. The protocol:
At day 3, post seeding cells are treated with ATPlite 1Step according to the manufacturer's instructions.
A general note: Cellular ATP, detected with luciferase, serves as a proxy for viable cell number.

In the series with HBV in 2.2.15 cells, `CC(C)(C)[C@@H]1Cn2nc(-c3cc(F)c(F)cc3N)cc2-c2cc(=O)c(C(=O)O)cn21` [Example 64, (R)-2-(2-amino-4,5-difluorophenyl)-6-(tert-butyl)-10-oxo-5,6-dihydro-10H-pyrazolo[1,5-a]pyrido[2,2-c]pyrazine-12-carboxylic acid] yielded an EC50 below 0.1 µM. The 50% cytotoxic concentration (CC50) at 3 days in series [1] was above 25 µM.

In the series with HBV in 2.2.15 cells, `CC(C)(C)[C@@H]1Cn2nc(-c3c(F)cccc3Cl)cc2-c2cc(=O)c(C(=O)O)cn21` [Example 65, (R)-6-(tert-butyl)-2-(2-chloro-6-fluorophenyl)-10-oxo-5,6-dihydro-10H-pyrazolo[1,5-a]pyrido[2,2-c]pyrazine-12-carboxylic acid] yielded an EC50 below 0.1 µM. The same compound came in with a CC50 at 3 days in series [1] above 25 µM.

In the series on HBV in 2.2.15 cells, `CC(C)(C)[C@@H]1Cn2nc(-c3cc(F)c(F)cc3O)cc2-c2cc(=O)c(C(=O)O)cn21` [Example 66, (R)-6-(tert-butyl)-2-(4,5-difluoro-2-hydroxyphenyl)-10-oxo-5,6-dihydro-10H-pyrazolo[1,5-a]pyrido[2,2-c]pyrazine-12-carboxylic acid] had an EC50 below 0.1 µM. The compound further displayed a CC50 at 3 days in series [1] above 25 µM.

On to `CC(C)(C)[C@@H]1Cn2nc(-c3cccc4cn[nH]c34)cc2-c2cc(=O)c(C(=O)O)cn21` [Example 67, (R)-6-(tert-butyl)-2-(1H-indazol-7-yl)-10-oxo-5,6-dihydro-10H-pyrazolo[1,5-a]pyrido[2,2-c]pyrazine-12-carboxylic acid], for which, in the series with HBV in 2.2.15 cells, the EC50 is below 0.1 µM. In addition, in series [1], the CC50 at 3 days was above 25 µM.

In turn, `CC(C)(C)[C@@H]1Cn2nc(-c3ccccc3OC(F)F)cc2-c2cc(=O)c(C(=O)O)cn21` [Example 68, (R)-6-(tert-butyl)-2-(2-(difluoromethoxy)phenyl)-10-oxo-5,6-dihydro-10H-pyrazolo[1,5-a]pyrido[2,2-c]pyrazine-12-carboxylic acid] gave an EC50 in the series on HBV in 2.2.15 cells below 0.1 µM. This compound yielded a CC50 at 3 days in series [1] above 25 µM.

On to `COc1c(-c2cc3n(n2)C[C@@H](C(C)(C)C)n2cc(C(=O)O)c(=O)cc2-3)ccc(F)c1F` [Example 69, (R)-6-(tert-butyl)-2-(3,4-difluoro-2-methoxyphenyl)-10-oxo-5,6-dihydro-10H-pyrazolo[1,5-a]pyrido[2,2-c]pyrazine-12-carboxylic acid], for which, in the series on HBV in 2.2.15 cells, the EC50 is below 0.1 µM. In series [1], the CC50 at 3 days was above 25 µM.

Consider `CC(C)(C)[C@@H]1Cn2nc(-c3cccc4c3sc3ccccc34)cc2-c2cc(=O)c(C(=O)O)cn21` [Example 70, (R)-6-(tert-butyl)-2-(dibenzo[b,d]thiophen-4-yl)-10-oxo-5,6-dihydro-10H-pyrazolo[1,5-a]pyrido[2,2-c]pyrazine-12-carboxylic acid], for which the EC50 with HBV in 2.2.15 cells was 0.2 to 1 µM. In addition, in series [1], the CC50 at 3 days was above 25 µM.

For `CCOc1c(F)cccc1-c1cc2n(n1)C[C@@H](C(C)(C)C)n1cc(C(=O)O)c(=O)cc1-2` [Example 71, (R)-6-(tert-butyl)-2-(2-ethoxy-3-fluorophenyl)-10-oxo-5,6-dihydro-10H-pyrazolo[1,5-a]pyrido[2,2-c]pyrazine-12-carboxylic acid], the EC50 with HBV in 2.2.15 cells was below 0.1 µM. For the same compound, the CC50 at 3 days in series [1] was above 25 µM.

Take `CCOc1cc(F)ccc1-c1cc2n(n1)C[C@@H](C(C)(C)C)n1cc(C(=O)O)c(=O)cc1-2` [Example 72, (R)-6-(tert-butyl)-2-(2-ethoxy-4-fluorophenyl)-10-oxo-5,6-dihydro-10H-pyrazolo[1,5-a]pyrido[2,2-c]pyrazine-12-carboxylic acid]: the EC50 in the series on HBV in 2.2.15 cells is below 0.1 µM. The CC50 at 3 days in series [1] is above 25 µM.

For the compound `CCOc1ccc(F)cc1-c1cc2n(n1)C[C@@H](C(C)(C)C)n1cc(C(=O)O)c(=O)cc1-2` [Example 73, (R)-6-(tert-butyl)-2-(2-ethoxy-5-fluorophenyl)-10-oxo-5,6-dihydro-10H-pyrazolo[1,5-a]pyrido[2,2-c]pyrazine-12-carboxylic acid], the EC50 in the series on HBV in 2.2.15 cells was below 0.1 µM. In series [1], this compound came in with a CC50 at 3 days above 25 µM.

As for `CCOc1cccc(F)c1-c1cc2n(n1)C[C@@H](C(C)(C)C)n1cc(C(=O)O)c(=O)cc1-2` [Example 74, (R)-6-(tert-butyl)-2-(2-ethoxy-6-fluorophenyl)-10-oxo-5,6-dihydro-10H-pyrazolo[1,5-a]pyrido[2,2-c]pyrazine-12-carboxylic acid], the EC50 with HBV in 2.2.15 cells is below 0.1 µM. In series [1], this compound gave a CC50 at 3 days above 25 µM.

`CC(C)(C)[C@@H]1Cn2nc(-c3ccccc3OCC3CC3)cc2-c2cc(=O)c(C(=O)O)cn21` [Example 75, (R)-6-(tert-butyl)-2-(2-(cyclopropylmethoxy)phenyl)-10-oxo-5,6-dihydro-10H-pyrazolo[1,5-a]pyrido[2,2-c]pyrazine-12-carboxylic acid] registered an EC50 in the series with HBV in 2.2.15 cells below 0.1 µM. The compound further gave a CC50 at 3 days in series [1] above 25 µM.

With `CC(C)(C)[C@@H]1Cn2nc(-c3ccccc3OC3CCCC3)cc2-c2cc(=O)c(C(=O)O)cn21` [Example 76, (R)-6-(tert-butyl)-2-(2-(cyclopentyloxy)phenyl)-10-oxo-5,6-dihydro-10H-pyrazolo[1,5-a]pyrido[2,2-c]pyrazine-12-carboxylic acid], the EC50 in the series on HBV in 2.2.15 cells is below 0.1 µM. In series [1], this compound had a CC50 at 3 days above 25 µM.

With `CCCOc1ccccc1-c1cc2n(n1)C[C@@H](C(C)(C)C)n1cc(C(=O)O)c(=O)cc1-2` [Example 77, (R)-6-(tert-butyl)-10-oxo-2-(2-propoxyphenyl)-5,6-dihydro-10H-pyrazolo[1,5-a]pyrido[2,2-c]pyrazine-12-carboxylic acid], in the series on HBV in 2.2.15 cells, the EC50 was below 0.1 µM. This compound also registered a CC50 at 3 days in series [1] above 25 µM.

On to `CCCCOc1ccccc1-c1cc2n(n1)C[C@@H](C(C)(C)C)n1cc(C(=O)O)c(=O)cc1-2` [Example 78, (R)-2-(2-butoxyphenyl)-6-(tert-butyl)-10-oxo-5,6-dihydro-10H-pyrazolo[1,5-a]pyrido[2,2-c]pyrazine-12-carboxylic acid], for which the EC50 in the series on HBV in 2.2.15 cells is below 0.1 µM. This compound also displayed a CC50 at 3 days in series [1] above 25 µM.

`COCCOc1ccccc1-c1cc2n(n1)C[C@@H](C(C)(C)C)n1cc(C(=O)O)c(=O)cc1-2` [Example 79, (R)-6-(tert-butyl)-2-(2-(2-methoxyethoxy)phenyl)-10-oxo-5,6-dihydro-10H-pyrazolo[1,5-a]pyrido[2,2-c]pyrazine-12-carboxylic acid] yielded an EC50 in the series with HBV in 2.2.15 cells below 0.1 µM. The compound also had a CC50 at 3 days in series [1] above 25 µM.

Turning to `CC(C)COc1ccccc1-c1cc2n(n1)C[C@@H](C(C)(C)C)n1cc(C(=O)O)c(=O)cc1-2` [Example 80, (R)-6-(tert-butyl)-2-(2-isobutoxyphenyl)-10-oxo-5,6-dihydro-10H-pyrazolo[1,5-a]pyrido[2,2-c]pyrazine-12-carboxylic acid], in the series with HBV in 2.2.15 cells, the EC50 is below 0.1 µM. In addition, the CC50 at 3 days in series [1] is above 25 µM.

In the series on HBV in 2.2.15 cells, `CC(C)(C)[C@@H]1Cn2nc(-c3ccccc3OC3CC3)cc2-c2cc(=O)c(C(=O)O)cn21` [Example 81, (R)-6-(tert-butyl)-2-(2-cyclopropoxyphenyl)-10-oxo-5,6-dihydro-10H-pyrazolo[1,5-a]pyrido[2,2-c]pyrazine-12-carboxylic acid] showed an EC50 below 0.1 µM. For the same compound, in series [1], the CC50 at 3 days was above 25 µM.

As for `CC(C)Oc1ccccc1-c1cc2n(n1)C[C@@H](C(C)(C)C)n1cc(C(=O)O)c(=O)cc1-2` [Example 82, (R)-6-(tert-butyl)-2-(2-isopropoxyphenyl)-10-oxo-5,6-dihydro-10H-pyrazolo[1,5-a]pyrido[2,2-c]pyrazine-12-carboxylic acid], the EC50 in the series on HBV in 2.2.15 cells was below 0.1 µM. Further, the CC50 at 3 days in series [1] was above 25 µM.

`CC(C)c1ccccc1-c1cc2n(n1)C[C@@H](C(C)(C)C)n1cc(C(=O)O)c(=O)cc1-2` [Example 83, (R)-6-(tert-butyl)-2-(2-isopropylphenyl)-10-oxo-5,6-dihydro-10H-pyrazolo[1,5-a]pyrido[2,2-c]pyrazine-12-carboxylic acid] had an EC50 with HBV in 2.2.15 cells of 0.2 to 1 µM. The compound also showed a CC50 at 3 days in series [1] above 25 µM.

In the series with HBV in 2.2.15 cells, `CC(C)(C)[C@@H]1Cn2nc(-c3ccccc3CO)cc2-c2cc(=O)c(C(=O)O)cn21` [Example 84, (R)-6-(tert-butyl)-2-(2-(hydroxymethyl)phenyl)-10-oxo-5,6-dihydro-10H-pyrazolo[1,5-a]pyrido[2,2-c]pyrazine-12-carboxylic acid] returned an EC50 of 0.2 to 1 µM. In addition, the CC50 at 3 days in series [1] is above 25 µM.

In the series with HBV in 2.2.15 cells, `CC(C)(C)[C@@H]1Cn2nc(-c3ccccc3C(F)F)cc2-c2cc(=O)c(C(=O)O)cn21` [Example 85] had an EC50 of 0.2 to 1 µM. In series [1], this compound returned a CC50 at 3 days above 25 µM.

As for `CCOc1ccccc1-c1nc2n(n1)C[C@@H](C(C)(C)C)n1cc(C(=O)O)c(=O)cc1-2` [Example 86, (R)-6-(tert-butyl)-2-(2-ethoxyphenyl)-10-oxo-5,6-dihydro-10H-pyrido[1,2-a][1,2,4]triazolo[5,2-c]pyrazine-12-carboxylic acid], the EC50 in the series on HBV in 2.2.15 cells was below 0.1 µM. The same compound registered a CC50 at 3 days in series [1] above 25 µM.

As for `CC(C)(C)[C@@H]1Cn2nc(-c3cccc4c3OC(F)(F)O4)c(Cl)c2-c2cc(=O)c(C(=O)O)cn21` [Example 88, (R)-6-(tert-butyl)-1-chloro-2-(2,2-difluorobenzo[d][1,3]dioxol-4-yl)-10-oxo-5,6-dihydro-10H-pyrazolo[1,5-a]pyrido[2,1-c]pyrazine-9-carboxylic acid], in the series on HBV in 2.2.15 cells, the EC50 is below 0.1 µM. Further, the CC50 at 3 days in series [1] is above 25 µM.

Compound `CC(C)(C)[C@@H]1Cn2nc(-c3ccc(F)cc3)c(-c3ccc(F)cc3)c2-c2cc(=O)c(C(=O)O)cn21` [Example 91, (R)-6-(tert-butyl)-1,2-bis(4-fluorophenyl)-10-oxo-5,6-dihydro-10H-pyrazolo[1,5-a]pyrido[2,1-c]pyrazine-9-carboxylic acid] registered an EC50 in the series with HBV in 2.2.15 cells below 0.1 µM. The CC50 at 3 days in series [1] is above 25 µM.

The EC50 is the concentration needed to bring the measured effect to its halfway point. A low value points to greater potency. The term CC50 denotes the concentration that lowers cell viability or growth by half. Lower therefore signals harm at low concentration.
